Literature values, collected in patent US20070286864A1, “Combined treatment with an EGFR kinase inhibitor and an agent that sensitizes tumor cells to the effects of EGFR kinase inhibitors” (priority 2006, published 2007).

Legend:
H460 cells = details: erlotinib single agent (10 μM), relatively insensitive = maximum growth inhibition less than 50%
H358 cells = details: erlotinib single agent (10 μM), sensitive = maximum growth inhibition greater than 50%
Calu6 cells = details: erlotinib single agent (10 μM), relatively insensitive = maximum growth inhibition less than 50%
H292 cells = details: erlotinib single agent (10 μM), sensitive = maximum growth inhibition greater than 50%
H1703 cells = details: erlotinib single agent (10 μM), relatively insensitive = maximum growth inhibition less than 50%

In the case of `C#Cc1cccc(Nc2ncnc3cc(OCCOC)c(OCCOC)cc23)c1` [erlotinib, [6,7-bis(2-methoxyethoxy)-4-quinazolin-4-yl]-(3-ethynylphenyl)amine], the “sensitivity of cell line to erlotinib” value (H460 cells) is given as “relatively insensitive”, the “sensitivity of cell line to erlotinib” value (H358 cells) is given as “sensitive” and the “sensitivity of cell line to erlotinib” value (Calu6 cells) is given as “relatively insensitive”. The “sensitivity of cell line to erlotinib” value (H292 cells) was “sensitive” and the “sensitivity of cell line to erlotinib” value (H1703 cells) was “relatively insensitive”.
